Measured values from patent EP4707280A1, “1,4-CINEOLE DERIVATIVE AND INTERMEDIATE THEREOF, HERBICIDE CONTAINING SAID DERIVATIVE AS ACTIVE INGREDIENT, METHOD FOR USING HERBICIDE, AND METHOD FOR PREPARING AGROCHEMICAL COMPOSITION” (HOKKO CHEMICAL INDUSTRY CO., LTD., priority 2023, dated 2024).

Legend:
Assay type in all cases: in vivo
Echinochloa crus-galli [1] = assay: Test Example 4: herbicidal effect test by stem and leaf treatment in upland field; conditions: 120 g per 10 ares, sprayed seven days after sowing, upland soil, 14 days after application; for inhibition at 1200 g/ha: Echinochloa crus-galli, read-out: weed inhibition rate
Digitaria ciliaris [2] = assay: as above; conditions: 120 g per 10 ares, sprayed seven days after sowing, upland soil, 14 days after application; for inhibition at 1200 g/ha: Digitaria ciliaris, read-out: weed inhibition rate
Protocol: (§1) The present test was conducted in duplicate for each chemical concentration group, and the weed inhibition rate (%) was determined 14 days after chemical application using the following formula (Math. 1). [formula]
(§2) Pots with an area of 36 cm^2 were filled with upland soil (alluvial loam), twenty seeds each of weeds of Digitaria ciliaris, Echinochloa crus-galli, and Amaranthus viridis were uniformly mixed with the top 1 cm layer of soil and the surface was lightly pressed down. Seven days after sowing, an emulsifiable concentrate prepared according to Formulation Example 5 using the compound shown below was diluted with water, and the diluted solution was sprayed onto the soil surface at a rate of 100 liters per 10 ares. The amount of the active ingredient to be applied was equivalent to 120 g per 10 ares. Fourteen days after chemical application, the herbicidal effect was evaluated according to the same criteria as in Test Example 1.

[3] = tested on: Echinochloa crus-galli var. formosensis; assay: Test Example 2: herbicidal effect test by application during growth period of paddy rice; conditions: 120 g per 10 ares, applied seven days after sowing, flooded pots, 14 days after application; for inhibition at 1200 g/ha: Echinochloa crus-galli, read-out: weed inhibition rate
Protocol: as §1
(§3) Wagner pots with an area of […] were filled with paddy soil, followed by addition of water and incorporation of chemical fertilizer (N:P:K = 16:16:16), after which puddling was performed. After that, seeds of Echinochloa crus-galli var. formosensis, broad-leaved weeds (Monochoria vaginalis), and Scirpus juncoides were sown at a depth of 0 cm to 1 cm, 30 seeds each. Immediately after sowing, the pots were flooded and a water depth of approximately 3 cm was maintained. Subsequent management was conducted in a glass greenhouse. Seven days after sowing, an emulsifiable concentrate prepared according to Formulation Example 5 using the compound shown below was diluted with water, and a specified amount of the diluted solution was applied by dropper. The amount of the active ingredient to be applied was equivalent to 120 g per 10 ares. The test was conducted in duplicate for each chemical concentration group, and the herbicidal effect was evaluated 14 days after chemical application using the same criteria as in Test Example 1.

Digitaria ciliaris [4] = assay: Test Example 3: herbicidal effect test by soil application in upland field; conditions: 120 g per 10 ares, sprayed one day after sowing, 14 days after application; for inhibition at 1200 g/ha: Digitaria ciliaris, read-out: weed inhibition rate
Protocol: as §1
as §2, with “crus-galli, Chenopodium album,” for “crus-galli,”, “One day” for “Seven days”

Echinochloa crus-galli [5] = assay: as above; conditions: 120 g per 10 ares, sprayed one day after sowing, 14 days after application; for inhibition at 1200 g/ha: Echinochloa crus-galli, read-out: weed inhibition rate
Protocol: as §1
as §2, with “crus-galli, Chenopodium album,” for “crus-galli,”, “One day” for “Seven days”

[6] = tested on: Echinochloa crus-galli var. formosensis; assay: Test Example 1: herbicidal effect test by soil application in paddy rice; conditions: 120 g active ingredient per 10 ares, applied immediately after sowing, flooded pots, 14 days after application; for pest or weed control at 1200 g/ha: Echinochloa crus-galli, soil, 336 h, read-out: weed inhibition rate
Protocol: as §3, with “([…] Monochoria” for “(Monochoria”, “Immediately thereafter,” for “Seven days after sowing,”, “ares.” for “ares. The test was conducted in duplicate for each chemical concentration group, and the herbicidal effect was evaluated 14 days after chemical application using the same criteria as in Test Example 1.”

CCOC1C[C@]2(C)O[C@@]1(C(C)C)C[C@H]2OCc1ccccc1F (mixture of isomers) [1-916, (1S,2R,4R,SR)-5-ethoxy-2-[(2-fluorophenyl)methoxy]-1-methyl-4-isopropyl-7-oxabicyclo[2.2.1]heptane]
≥ 80%: inhibition at 1200 g/ha (Echinochloa crus-galli [1]) | inhibition at 1200 g/ha (Digitaria ciliaris [2])

CC(C)=CCO[C@H]1C[C@@]2(C(C)C)O[C@]1(C)CC2Br (mixture of isomers) [1-1007, (1R,2S,4S,SR)-5-bromo-1-methyl-2-(3-methylbut-2-enoxy)-4-isopropyl-7-oxabicyclo[2.2.1]heptane]
≥ 80%: inhibition at 1200 g/ha (Echinochloa crus-galli [1]) | inhibition at 1200 g/ha [3] | inhibition at 1200 g/ha (Digitaria ciliaris [4]) | inhibition at 1200 g/ha (Echinochloa crus-galli [5]) | inhibition at 1200 g/ha (Digitaria ciliaris [2]) | pest or weed control at 1200 g/ha [6]

CC(C)[C@@]12C[C@H](OCc3ccccc3Cl)[C@@](C)(CC1Br)O2 (mixture of isomers) [1-1031, (1R,2S,4S,SR)-5-bromo-2-[(2-chlorophenyl)methoxy]-1-methyl-4-isopropyl-7-oxabicyclo[2.2.1]heptane]
≥ 80%: inhibition at 1200 g/ha (Echinochloa crus-galli [1]) | inhibition at 1200 g/ha [3] | inhibition at 1200 g/ha (Digitaria ciliaris [4]) | inhibition at 1200 g/ha (Echinochloa crus-galli [5]) | inhibition at 1200 g/ha (Digitaria ciliaris [2]) | pest or weed control at 1200 g/ha [6]

CC(C)[C@@]12C[C@H](OCc3ccccc3)[C@@](C)(CC1I)O2 (mixture of isomers) [1-1081, (1R,2S,4S,SR)-5-iodo-1-methyl-2-phenylmethoxy-4-isopropyl-7-oxabicyclo[2.2.1]heptane]
≥ 80%: inhibition at 1200 g/ha (Echinochloa crus-galli [1]) | inhibition at 1200 g/ha [3] | inhibition at 1200 g/ha (Digitaria ciliaris [4]) | inhibition at 1200 g/ha (Echinochloa crus-galli [5]) | inhibition at 1200 g/ha (Digitaria ciliaris [2]) | pest or weed control at 1200 g/ha [6]

CC(C)[C@]12C[C@@H](OCc3ccccc3F)[C@](C)(C[C@H]1C)O2 (racemic) [1-1597, (1SR,2RS,4RS,5RS)-2-[(2-fluorophenyl)methoxy]-1,5-dimethyl-4-isopropyl-7-oxabicyclo[2.2.1]heptane]
≥ 80%: inhibition at 1200 g/ha (Echinochloa crus-galli [1]) | inhibition at 1200 g/ha [3] | inhibition at 1200 g/ha (Digitaria ciliaris [4]) | inhibition at 1200 g/ha (Echinochloa crus-galli [5]) | inhibition at 1200 g/ha (Digitaria ciliaris [2]) | pest or weed control at 1200 g/ha [6]

C=CCO[C@@H]1C[C@]2(C(C)C)O[C@@]1(C)C[C@@H]2Br [1-671, (1S,2R,4R,5S)-5-bromo-1-methyl-4-isopropyl-2-prop-2-enoxy-7-oxabicyclo[2.2.1]heptane]
≥ 80%: inhibition at 1200 g/ha (Echinochloa crus-galli [1])

C#CCO[C@@H]1C[C@]2(C(C)C)O[C@@]1(C)C[C@@H]2Br [1-673, (1S,2R,4R,5S)-5-bromo-1-methyl-4-isopropyl-2-prop-2-ynoxy-7-oxabicyclo[2.2.1]heptane]
≥ 80%: inhibition at 1200 g/ha [3] | pest or weed control at 1200 g/ha [6]

COCO[C@@H]1C[C@]2(C(C)C)O[C@@]1(C)C[C@@H]2Br [1-677, (1S,2R,4R,5S)-5-bromo-2-(methoxymethoxy)-1-methyl-4-isopropyl-7-oxabicyclo[2.2.1]heptane]
≥ 80%: inhibition at 1200 g/ha [3]

CC(C)[C@]12C[C@@H](OCc3cccc(Br)c3)[C@](C)(C[C@@H]1Br)O2 [1-695, (1S,2R,4R,5S)-5-bromo-2-[(3-bromophenyl)methoxy]-1-methyl-4-isopropyl-7-oxabicyclo[2.2.1]heptane]
≥ 80%: inhibition at 1200 g/ha (Echinochloa crus-galli [1]) | inhibition at 1200 g/ha [3] | inhibition at 1200 g/ha (Digitaria ciliaris [4]) | inhibition at 1200 g/ha (Echinochloa crus-galli [5]) | inhibition at 1200 g/ha (Digitaria ciliaris [2]) | pest or weed control at 1200 g/ha [6]

CC(C)[C@]12C[C@@H](OCc3ccc(Br)cc3)[C@](C)(C[C@@H]1Br)O2 [1-696, (1S,2R,4R,5S)-5-bromo-2-[(4-bromophenyl)methoxy]-1-methyl-4-isopropyl-7-oxabicyclo[2.2.1]heptane]
≥ 80%: inhibition at 1200 g/ha (Echinochloa crus-galli [1]) | inhibition at 1200 g/ha [3] | inhibition at 1200 g/ha (Digitaria ciliaris [4]) | inhibition at 1200 g/ha (Echinochloa crus-galli [5]) | inhibition at 1200 g/ha (Digitaria ciliaris [2]) | pest or weed control at 1200 g/ha [6]

CC(C)[C@]12C[C@@H](OCc3cccc(C(F)(F)F)c3)[C@](C)(C[C@@H]1Br)O2 [1-701, (1S,2R,4R,5S)-5-bromo-l-methyl-4-isopropyl-2-[[3-(trifluoromethyl)phenyl]methoxy]-7-oxabicyclo[2.2.1]heptane]
≥ 80%: weed inhibition rate (Echinochloa crus-galli [1]) | weed inhibition rate [3] | weed inhibition rate (Digitaria ciliaris [4]) | weed inhibition rate (Echinochloa crus-galli [5]) | weed inhibition rate (Digitaria ciliaris [2]) | weed inhibition rate [6]

CC(C)[C@]12C[C@@H](OCc3ccc(C#N)cc3)[C@](C)(C[C@@H]1Br)O2 [1-705, 4-[[(1S,2R,4R,5S)-5-bromo-1-methyl-4-isopropyl-7-oxabicyclo[2.2.1]heptan-2-yl]oxymethyl]benzonitrile]
≥ 80%: inhibition at 1200 g/ha (Echinochloa crus-galli [1]) | inhibition at 1200 g/ha [3] | inhibition at 1200 g/ha (Digitaria ciliaris [4]) | inhibition at 1200 g/ha (Echinochloa crus-galli [5]) | inhibition at 1200 g/ha (Digitaria ciliaris [2]) | pest or weed control at 1200 g/ha [6]

CC(C)[C@]12C[C@@H](OCc3ccc4ccccc4c3)[C@](C)(C[C@@H]1Br)O2 [1-716, (1S,2R,4R,5S)-5-bromo-1-methyl-2-(naphthalen-2-ylmethoxy)-4-isopropyl-7-oxabicyclo[2.2.1]heptane]
≥ 80%: inhibition at 1200 g/ha [3] | pest or weed control at 1200 g/ha [6]

Cc1ccc(C2C[C@]3(C)O[C@@]2(C(C)C)C[C@H]3OCc2ccccc2F)cc1 (stereo partly drawn) [1-927, (1S,2R,4R)-2-((2-fluorobenzyl)oxy)-4-isopropyl-1-methyl-5-(p-tolyl)-7-oxabicyclo[2.2.1]heptane]
≥ 80%: inhibition at 1200 g/ha (Digitaria ciliaris [4]) | inhibition at 1200 g/ha (Echinochloa crus-galli [5])

CC(C)[C@@]12C[C@H](OCc3ccccc3)[C@@](C)(C[C@H]1Br)O2 [1-1015, (1R,2S,4S,5R)-5-bromo-1-methyl-2-phenylmethoxy-4-isopropyl-7-oxabicyclo[2.2.1]heptane]
≥ 80%: inhibition at 1200 g/ha (Echinochloa crus-galli [1]) | inhibition at 1200 g/ha [3] | inhibition at 1200 g/ha (Digitaria ciliaris [4]) | inhibition at 1200 g/ha (Echinochloa crus-galli [5]) | inhibition at 1200 g/ha (Digitaria ciliaris [2]) | pest or weed control at 1200 g/ha [6]

Cc1ccccc1CO[C@H]1C[C@@]2(C(C)C)O[C@]1(C)C[C@H]2Br [1-1016, (1R,2S,4S,5R)-5-bromo-1-methyl-2-[(2-methylphenyl)methoxy]-4-isopropyl-7-oxabicyclo[2.2.1]heptane]
≥ 80%: inhibition at 1200 g/ha (Echinochloa crus-galli [1]) | inhibition at 1200 g/ha [3] | inhibition at 1200 g/ha (Digitaria ciliaris [4]) | inhibition at 1200 g/ha (Echinochloa crus-galli [5]) | inhibition at 1200 g/ha (Digitaria ciliaris [2]) | pest or weed control at 1200 g/ha [6]

COc1ccccc1CO[C@H]1C[C@@]2(C(C)C)O[C@]1(C)C[C@H]2Br [1-1022, (1R,2S,4S,5R)-5-bromo-2-[(2-methoxyphenyl)methoxy]-1-methyl-4-isopropyl-7-oxabicyclo[2.2.1]heptane]
≥ 80%: inhibition at 1200 g/ha (Echinochloa crus-galli [1]) | inhibition at 1200 g/ha [3] | inhibition at 1200 g/ha (Digitaria ciliaris [4]) | inhibition at 1200 g/ha (Echinochloa crus-galli [5]) | inhibition at 1200 g/ha (Digitaria ciliaris [2]) | pest or weed control at 1200 g/ha [6]

COc1cccc(CO[C@@H]2C[C@]3(C(C)C)O[C@@]2(C)CC3=O)c1 [2-347, (1R,4S,5R)-1-isopropyl-5-((3-methoxybenzyl)oxy)-4-methyl-7-oxabicyclo[2.2.1]heptan-2-one]
≥ 80%: inhibition at 1200 g/ha (Echinochloa crus-galli [5]) | pest or weed control at 1200 g/ha [6]
